How the values were obtained:
Type in all cases: cell-based, S. pyogenes
SpCas9 [1] = target: T1, SpCas9 (Streptococcus pyogenes serotype M1, UniProt Q99ZW2); assay: mKate2-disruption assay in HEK293T cells; settings: 1.5-5 μM, 24 h
Experimental: mKate2-disruption assay. Approximately 8,000 cells/well were seeded in a 96-well plate 24 h before transient transfection with 100 ng of either CgRNA (Addgene Plasmid #64955) or T1gRNA (Addgene Plasmid #62717) plasmids using Lipofectamine 2000 (Life Technologies). Transfected cells were allowed to grow in the indicated amount of small molecule or DMSO for 24 h. Cells were then fixed using 4% paraformaldehyde and imaged with the HCS NuclearMask™ Blue Stain (Life Technologies) as the nuclear counter-staining agent. Imaging was performed with an ImageXpress Micro automated microscope (Molecular Devices) at 20× magnification under two excitation channels (blue and red) with 9 acquisition sites per well. Images were analyzed using the MetaXpress software to determine the % mKate2 positive cells and data was plotted using GraphPad Prism 6. The Z′-value was calculated following the formula: Z′=1−(3(σ1+σ2))/(|μ1−μ2|) where σ1 and σ2 are the standard deviations of CgRNA transfected wells and T1gRNA transfected wells respectively. μ1 and μ2 are the mean % RFP^+ cell population for CgRNA transfected wells and T1gRNA transfected wells, respectively.

SpCas9 [2] = target: T1, SpCas9; assay: NHEJ assay in HEK293T cells; settings: 2-10 μM, 24 h
Experimental: NHEJ assay. Approximately 8,000 cells/well were seeded in a 96-well plate 24 h before transient transfection with a total 100 ng of DN66 (mCherry—TAG—GFP reporter) and DN78 (SpCas9 and gRNA) plasmids (1:1) using Lipofectamine 2000 (Life Technologies) (Nguyen et al., 2016b). Transfected cells were incubated with the indicated amount of small molecule or DMSO for 24 h. Cells were then fixed using 4% paraformaldehyde and imaged with the HCS NuclearMask™ Blue Stain (Life Technologies) as the nuclear counter-staining agent. Imaging was performed with an ImageXpress Micro automated microscope (Molecular Devices) at 4× magnification under three excitation channels (blue, green and red) with 9 acquisition sites per well. Images were analyzed in the MetaXpress software to determine the % NHEJ and the data were plotted using GraphPad Prism 6. The Z′-value was calculated following the formula: Z′=1−(3(σ1+σ2))/(|μ1−μ2|) where σ1 and σ2 are the standard deviations of DN66 transfected wells and (DN66+DN78) transfected wells respectively. μ1 and μ2 are the mean % GFP cell population for DN66 transfected wells and (DN66+DN78) transfected wells respectively.

[3] = target: T2, dCas9-based transcription-activation complex (Streptococcus pyogenes serotype M1, UniProt Q99ZW2, D10A, form not given); assay: dCas9-based transcription activation of HBG1 in HEK293FT cells (RT-qPCR); settings: 20 μM
T2 construct: "dSpCas9|Feng Zhang lab|NA"; The MS2-p65-HSF1(-GFP) effector is a separate chain recruited through MS2 aptamers in the sgRNA
Experimental: Transcription activation experiments and quantitative RT-PCR analyses. HEK293FT cells were maintained in high glucose DMEM with glutamax (Life Technologies) and supplemented with 10% FBS (Life Technologies), 1% penicillin-streptomycin (Life Technologies) and 1 mM sodium pyruvate (Life Technologies). For transcription activation experiments, 20,000 cells/well were plated in a poly D-lysine-coated 96-well plate. The cells were transiently transfected with a 1:1:1 mass ratio of the dCas9 plasmid, MS2-P65-HSF1 effector plasmid and the sgRNA plasmid targeting the HBG1 gene or an RFP control plasmid. A total of 0.3 μg plasmid DNA was transfected using Lipofectamine 2000 (Life Technologies) according to manufacturer's protocol. Immediately after transfection, the cells were treated with an appropriate dose of the small-molecule inhibitors. A DMSO solution of compound (20 mM) was resuspended in the 10% FBS containing growth media and thoroughly mixedbefore adding to the cells. After 48 h the cells were lysed and 5 μL of the cell lysate was used to perform reverse transcription using the RevertAid RT Reverse Transcription Kit (Thermo Fischer Scientific) as described by Joung J. et al. qPCR reactions were performed to quantify RNA expression using the TaqMan probes (Life Technologies, HBG1/HBG2: Hs00361131_g1, ACTB: Hs01060665_g1) and TaqMan Fast Advanced Master Mix (Life Technologies) in 5 μL multiplexed reactions and 384-well format using the LightCycler 480 Instrument II (Roche). For each sample, four technical replicates were performed. Data were analyzed using the LightCycler 480 software (Roche) by the ΔΔCt method: Ct values for the gene of interest (HBG1) were normalized to Ct values for the housekeeping gene (ACTB), and fold-changes in the expression level of gene of interest were normalized to RFP-transfected control. The data is reported as mean±S.E.M. for technical replicates.

SpCas9 [4] = target: T1, SpCas9; assay: HiBiT assay in U2OS.eGFP.PEST cells; parameters: host or cells: U2OS.eGFP.PEST; settings: 24 h
Experimental: HiBiT assay. For SpCas9 expression in cells, the previously described JDS246 plasmid was used (Kleinstiver et al., 2015b). ssODN donor DNA template with the HiBiT tag was purchased as single-stranded Ultramer DNA Oligonucleotides (IDT) and resuspended to 40 μM in nuclease-free water. For the assay, 2×10^5 cells were co-transfected with 300 ng Cas9 plasmid, 75 ng sgRNA plasmid and 100 ng ssODN using the DN-100 program of Lonza 4D nucleofector according to the manufacturer's protocols. For negative controls, either the sgRNA plasmid or the ssODN was omitted. 20,000 transfected cells were plated in each well of a 96-well plate (Corning 3904). Immediately after transfection, cells were treated with varying concentrations of BRD0539 or BRD3433 and incubated at 37° C. with 5% CO2. 24 h after transfection, the cells were washed once with PBS and kept in 80 μL PBS. An equal volume of the Nano-Glo HiBiT Lytic Reagent (Promega N3030), consisting of Nano-Glo HiBiT Lytic Buffer, Nano-Glo HiBiT Lytic Substrate, and LgBiT Protein, was added according to the manufacturer's protocol, and cells were incubated for 10 min at ambient temperature with shaking at 600 rpm (Schwinn et al., 2018a). The cells were then incubated for an additional 10 min without shaking at room temperature to allow equilibration of the HiBiT and LgBiT in the lysate. The lysate was then transferred to a white plate (Corning 3990) and luminescence was measured using an Envision plate reader (Perkin-Elmer) with 1 s of integration time.

T1 sequence (Q99ZW2 whole entry): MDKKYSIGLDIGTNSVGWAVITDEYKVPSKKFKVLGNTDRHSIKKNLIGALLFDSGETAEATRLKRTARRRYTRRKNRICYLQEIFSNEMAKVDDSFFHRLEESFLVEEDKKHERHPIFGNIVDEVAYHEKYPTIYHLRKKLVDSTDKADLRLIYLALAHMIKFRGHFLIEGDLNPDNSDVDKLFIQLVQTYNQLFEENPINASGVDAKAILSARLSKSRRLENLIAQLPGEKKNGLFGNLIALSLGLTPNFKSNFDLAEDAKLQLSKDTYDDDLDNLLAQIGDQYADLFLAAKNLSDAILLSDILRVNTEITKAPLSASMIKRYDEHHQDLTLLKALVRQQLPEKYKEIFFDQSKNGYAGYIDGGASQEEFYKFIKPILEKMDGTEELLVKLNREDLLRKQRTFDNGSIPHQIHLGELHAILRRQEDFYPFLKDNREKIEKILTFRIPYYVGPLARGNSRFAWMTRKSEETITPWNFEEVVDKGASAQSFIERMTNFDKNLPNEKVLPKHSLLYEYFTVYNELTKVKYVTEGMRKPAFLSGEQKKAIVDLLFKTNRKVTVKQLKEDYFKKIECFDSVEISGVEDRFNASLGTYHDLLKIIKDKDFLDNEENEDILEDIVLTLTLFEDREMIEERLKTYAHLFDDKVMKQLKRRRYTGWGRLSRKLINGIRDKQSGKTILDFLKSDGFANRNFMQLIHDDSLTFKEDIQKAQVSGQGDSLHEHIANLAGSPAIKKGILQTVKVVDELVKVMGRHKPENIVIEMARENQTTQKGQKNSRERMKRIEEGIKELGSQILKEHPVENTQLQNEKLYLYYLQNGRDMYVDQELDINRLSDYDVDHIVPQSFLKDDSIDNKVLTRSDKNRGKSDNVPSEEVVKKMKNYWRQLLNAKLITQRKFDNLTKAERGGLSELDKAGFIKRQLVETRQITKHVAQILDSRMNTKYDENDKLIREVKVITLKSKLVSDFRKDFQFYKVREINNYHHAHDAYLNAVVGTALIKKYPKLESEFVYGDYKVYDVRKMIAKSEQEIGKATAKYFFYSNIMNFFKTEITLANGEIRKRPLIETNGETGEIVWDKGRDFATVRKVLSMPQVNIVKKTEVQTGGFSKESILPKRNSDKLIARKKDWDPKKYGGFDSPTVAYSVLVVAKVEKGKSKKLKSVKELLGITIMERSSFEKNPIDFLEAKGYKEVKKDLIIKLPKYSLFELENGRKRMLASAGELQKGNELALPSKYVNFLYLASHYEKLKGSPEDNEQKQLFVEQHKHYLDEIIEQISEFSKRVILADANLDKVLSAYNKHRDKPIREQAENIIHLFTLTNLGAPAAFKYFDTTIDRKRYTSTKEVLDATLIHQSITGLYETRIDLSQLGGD
T2 sequence (Q99ZW2 whole entry, form open, one chain of several, change not shown): as the sequence (Q99ZW2 whole entry) above

OC[C@H]1Nc2ccc(-c3cccc(F)c3)cc2[C@H]2[C@@H]1CCN2Cc1ccncc1 [BRD7087, ((3aR,4S,9bR)-8-(3-Fluorophenyl)-1-(pyridin-4-ylmethyl)-2,3,3a,4,5,9b-hexahydro-1H-pyrrolo[3,2-c]quinolin-4-yl) methanol]
inhibition of SpCas9 in the mKate2 disruption assay (in words) (SpCas9 [1]): dose-dependent inhibition | inhibition of SpCas9 in the NHEJ assay (in words) (SpCas9 [2]): dose-dependent inhibition | inhibition of transcriptional activation [3]: ~60%

Cc1ccc(S(=O)(=O)N2CC[C@@H]3[C@H](CO)Nc4ccc(-c5ccccc5F)cc4[C@@H]32)cc1 [BRD0539, ((3aR,4R,9bR)-8-(2-fluorophenyl)-1-tosyl-2,3,3a,4,5,9b-hexahydro-1H-pyrrolo[3,2-c]quinolin-4-yl) methanol]
inhibition of SpCas9 in the HiBiT assay (in words) (SpCas9 [4]): dose-dependent inhibition | higher activity of BRD0539 than BRD3497 and BRD9419 in the HiBiT assay (SpCas9 [4]; tested from 4.8-15 μM): greater than two-fold
